In patent publication US20180021360A1, “Combination Therapy Regimen For Treatment Of Selected HCV Genotypes” (JANSSEN PHARMACEUTICALS, INC., priority 2016, published 2018):

How the values were obtained:
[1] = Phase 2a open-label combination study, pharmacokinetics; format: in vivo, human
Experimental: A randomized, Phase 2a, open-label study was carried out to evaluate the safety, pharmacokinetics and efficacy of the combination of Compound (III), Odalasvir and Simeprevir in Genotype 1 treatment-naïve subjects with chronic hepatitis C. Other treatment-naïve subjects included Genotype 2, 3, 4, 5 and 6.
The aim of the study was to determine the efficacy, pharmacokinetics (PK), and safety of Compound (II)+Odalasvir±SMV in HCV-infected subjects.
This was an open-label study evaluating various dosing regimens of Compound (III)+Odalasvir±SMV for 6-8 weeks in treatment-nave HCV-infected subjects with varying clinical characteristics (e.g., GT 1 or 3, presence/absence of compensated Child Pugh A cirrhosis). Efficacy, PK and safety evaluations were conducted during and through 24 weeks post dosing. Up to 15 cohorts were enrolled; data was generated from cohorts that have completed dosing.

HCV genotype 3 = experiment: activity against genotype 3 in vitro; parameters: species or system hepatitis C virus
P-gp = P-gp (Homo sapiens, UniProt P08183); conditions: cited from earlier work
Sequence of P-gp (P08183 whole entry): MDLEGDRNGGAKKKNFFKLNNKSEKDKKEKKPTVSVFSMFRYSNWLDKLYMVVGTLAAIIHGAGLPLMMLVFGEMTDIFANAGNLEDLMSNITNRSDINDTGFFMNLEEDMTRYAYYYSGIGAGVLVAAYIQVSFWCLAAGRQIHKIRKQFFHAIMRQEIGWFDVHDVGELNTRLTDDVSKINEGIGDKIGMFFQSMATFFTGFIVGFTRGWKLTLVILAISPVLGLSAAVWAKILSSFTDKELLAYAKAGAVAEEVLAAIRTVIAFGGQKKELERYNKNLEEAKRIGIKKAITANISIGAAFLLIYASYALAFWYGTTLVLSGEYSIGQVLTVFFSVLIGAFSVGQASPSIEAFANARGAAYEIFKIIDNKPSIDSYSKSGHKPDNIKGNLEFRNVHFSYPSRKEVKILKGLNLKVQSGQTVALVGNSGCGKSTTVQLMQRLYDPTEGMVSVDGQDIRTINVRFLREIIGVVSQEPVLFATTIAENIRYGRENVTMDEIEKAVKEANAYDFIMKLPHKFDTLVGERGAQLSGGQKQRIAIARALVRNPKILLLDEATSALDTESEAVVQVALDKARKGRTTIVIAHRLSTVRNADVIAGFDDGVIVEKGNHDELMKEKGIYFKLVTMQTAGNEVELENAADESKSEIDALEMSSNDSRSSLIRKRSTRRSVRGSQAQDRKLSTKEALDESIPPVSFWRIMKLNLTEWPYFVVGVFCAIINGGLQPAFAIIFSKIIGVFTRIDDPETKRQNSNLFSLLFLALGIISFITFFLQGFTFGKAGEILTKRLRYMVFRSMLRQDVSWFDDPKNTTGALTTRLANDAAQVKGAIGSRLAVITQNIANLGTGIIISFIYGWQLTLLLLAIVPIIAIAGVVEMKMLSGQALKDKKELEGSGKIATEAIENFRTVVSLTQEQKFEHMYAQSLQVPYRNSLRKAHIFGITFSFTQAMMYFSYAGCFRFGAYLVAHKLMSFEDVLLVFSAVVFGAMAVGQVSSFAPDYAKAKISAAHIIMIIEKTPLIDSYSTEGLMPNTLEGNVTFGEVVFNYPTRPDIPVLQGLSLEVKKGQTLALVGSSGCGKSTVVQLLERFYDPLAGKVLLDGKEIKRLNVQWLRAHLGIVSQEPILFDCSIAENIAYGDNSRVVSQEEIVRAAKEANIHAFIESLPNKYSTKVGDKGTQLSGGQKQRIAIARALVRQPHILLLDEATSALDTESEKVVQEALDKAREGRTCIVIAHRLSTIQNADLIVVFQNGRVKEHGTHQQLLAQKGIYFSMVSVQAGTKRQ

MRP2 = MRP2 (Homo sapiens, UniProt Q92887); conditions: cited from earlier work
Sequence of MRP2 (Q92887 whole entry): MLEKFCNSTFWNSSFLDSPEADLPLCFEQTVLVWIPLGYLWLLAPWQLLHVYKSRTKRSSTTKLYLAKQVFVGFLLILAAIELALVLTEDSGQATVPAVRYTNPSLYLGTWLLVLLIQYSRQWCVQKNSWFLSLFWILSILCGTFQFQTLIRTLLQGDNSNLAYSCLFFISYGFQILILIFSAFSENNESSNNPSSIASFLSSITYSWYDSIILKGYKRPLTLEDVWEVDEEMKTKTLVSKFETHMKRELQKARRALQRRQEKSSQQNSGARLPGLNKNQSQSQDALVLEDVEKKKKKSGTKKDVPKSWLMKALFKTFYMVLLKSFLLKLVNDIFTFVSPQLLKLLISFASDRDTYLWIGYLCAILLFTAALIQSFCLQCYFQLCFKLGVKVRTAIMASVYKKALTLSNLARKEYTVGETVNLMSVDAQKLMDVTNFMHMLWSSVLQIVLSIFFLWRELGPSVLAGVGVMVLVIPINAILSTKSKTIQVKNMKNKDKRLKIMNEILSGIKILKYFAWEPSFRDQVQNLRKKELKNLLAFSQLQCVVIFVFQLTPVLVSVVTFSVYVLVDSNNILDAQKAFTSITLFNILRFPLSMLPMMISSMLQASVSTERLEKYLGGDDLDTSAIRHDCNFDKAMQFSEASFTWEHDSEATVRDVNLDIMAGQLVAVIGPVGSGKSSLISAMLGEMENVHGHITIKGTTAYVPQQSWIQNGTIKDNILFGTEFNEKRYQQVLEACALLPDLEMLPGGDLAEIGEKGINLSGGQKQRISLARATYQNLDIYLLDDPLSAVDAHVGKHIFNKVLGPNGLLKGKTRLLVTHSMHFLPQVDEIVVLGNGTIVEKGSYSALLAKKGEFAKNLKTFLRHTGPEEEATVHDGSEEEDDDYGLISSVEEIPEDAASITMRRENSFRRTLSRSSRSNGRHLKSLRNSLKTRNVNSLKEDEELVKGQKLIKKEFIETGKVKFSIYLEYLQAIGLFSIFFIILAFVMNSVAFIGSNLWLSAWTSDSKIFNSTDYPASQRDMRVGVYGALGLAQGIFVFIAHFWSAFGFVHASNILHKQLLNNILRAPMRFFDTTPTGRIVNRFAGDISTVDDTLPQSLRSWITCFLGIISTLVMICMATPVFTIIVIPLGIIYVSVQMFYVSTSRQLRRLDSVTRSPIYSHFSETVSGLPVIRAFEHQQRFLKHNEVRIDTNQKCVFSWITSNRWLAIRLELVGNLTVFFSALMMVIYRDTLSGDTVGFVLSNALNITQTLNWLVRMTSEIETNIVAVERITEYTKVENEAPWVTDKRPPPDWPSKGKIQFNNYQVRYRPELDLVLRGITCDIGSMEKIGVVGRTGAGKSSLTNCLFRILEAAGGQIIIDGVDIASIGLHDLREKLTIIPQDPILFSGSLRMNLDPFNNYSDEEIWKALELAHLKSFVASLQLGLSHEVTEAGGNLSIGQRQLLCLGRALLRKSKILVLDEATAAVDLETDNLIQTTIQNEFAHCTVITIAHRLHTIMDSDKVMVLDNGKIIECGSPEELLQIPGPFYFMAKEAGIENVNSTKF

MRP3 = MRP3 (Homo sapiens, UniProt O15438); conditions: cited from earlier work
Sequence of MRP3 (O15438 whole entry): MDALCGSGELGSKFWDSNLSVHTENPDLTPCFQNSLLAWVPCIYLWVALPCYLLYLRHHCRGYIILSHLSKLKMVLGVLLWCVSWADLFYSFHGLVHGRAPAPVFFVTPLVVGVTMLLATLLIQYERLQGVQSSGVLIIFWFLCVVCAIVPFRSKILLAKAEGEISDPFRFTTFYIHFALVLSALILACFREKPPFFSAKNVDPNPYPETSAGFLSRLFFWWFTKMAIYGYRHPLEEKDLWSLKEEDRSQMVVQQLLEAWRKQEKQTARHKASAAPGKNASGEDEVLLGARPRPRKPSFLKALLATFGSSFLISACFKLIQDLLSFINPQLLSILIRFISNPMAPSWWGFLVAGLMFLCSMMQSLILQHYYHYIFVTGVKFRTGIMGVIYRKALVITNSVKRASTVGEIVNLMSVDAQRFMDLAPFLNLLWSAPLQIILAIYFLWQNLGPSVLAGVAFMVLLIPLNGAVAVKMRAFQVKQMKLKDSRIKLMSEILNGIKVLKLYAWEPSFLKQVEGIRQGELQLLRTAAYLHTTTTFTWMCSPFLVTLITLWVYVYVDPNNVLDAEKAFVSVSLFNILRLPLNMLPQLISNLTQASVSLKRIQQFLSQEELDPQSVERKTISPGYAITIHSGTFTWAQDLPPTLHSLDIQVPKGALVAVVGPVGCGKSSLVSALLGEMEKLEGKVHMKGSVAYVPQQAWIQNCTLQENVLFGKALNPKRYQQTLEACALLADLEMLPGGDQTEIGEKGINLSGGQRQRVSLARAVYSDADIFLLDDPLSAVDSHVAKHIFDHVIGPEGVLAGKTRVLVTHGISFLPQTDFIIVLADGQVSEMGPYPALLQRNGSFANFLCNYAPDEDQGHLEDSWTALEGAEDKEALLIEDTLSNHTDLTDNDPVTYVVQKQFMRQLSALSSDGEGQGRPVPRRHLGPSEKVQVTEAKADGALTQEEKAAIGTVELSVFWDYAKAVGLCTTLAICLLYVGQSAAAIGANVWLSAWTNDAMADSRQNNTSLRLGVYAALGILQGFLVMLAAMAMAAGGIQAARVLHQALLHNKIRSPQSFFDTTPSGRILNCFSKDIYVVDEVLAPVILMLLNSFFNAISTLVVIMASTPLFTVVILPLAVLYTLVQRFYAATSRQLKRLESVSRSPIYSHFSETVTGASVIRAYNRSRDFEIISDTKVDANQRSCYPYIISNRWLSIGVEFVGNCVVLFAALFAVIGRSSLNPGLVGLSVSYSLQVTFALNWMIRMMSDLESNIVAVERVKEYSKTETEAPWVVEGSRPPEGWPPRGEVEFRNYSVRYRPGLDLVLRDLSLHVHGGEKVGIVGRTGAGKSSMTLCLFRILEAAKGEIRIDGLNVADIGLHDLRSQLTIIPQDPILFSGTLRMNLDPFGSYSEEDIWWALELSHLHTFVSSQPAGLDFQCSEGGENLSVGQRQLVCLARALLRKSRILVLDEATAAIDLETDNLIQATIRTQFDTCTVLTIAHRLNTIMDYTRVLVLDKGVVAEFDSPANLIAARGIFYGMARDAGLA

BCRP = target: T1, BCRP (Homo sapiens, UniProt Q9UNQ0); conditions: cited from earlier work
T1 sequence (Q9UNQ0 1-655): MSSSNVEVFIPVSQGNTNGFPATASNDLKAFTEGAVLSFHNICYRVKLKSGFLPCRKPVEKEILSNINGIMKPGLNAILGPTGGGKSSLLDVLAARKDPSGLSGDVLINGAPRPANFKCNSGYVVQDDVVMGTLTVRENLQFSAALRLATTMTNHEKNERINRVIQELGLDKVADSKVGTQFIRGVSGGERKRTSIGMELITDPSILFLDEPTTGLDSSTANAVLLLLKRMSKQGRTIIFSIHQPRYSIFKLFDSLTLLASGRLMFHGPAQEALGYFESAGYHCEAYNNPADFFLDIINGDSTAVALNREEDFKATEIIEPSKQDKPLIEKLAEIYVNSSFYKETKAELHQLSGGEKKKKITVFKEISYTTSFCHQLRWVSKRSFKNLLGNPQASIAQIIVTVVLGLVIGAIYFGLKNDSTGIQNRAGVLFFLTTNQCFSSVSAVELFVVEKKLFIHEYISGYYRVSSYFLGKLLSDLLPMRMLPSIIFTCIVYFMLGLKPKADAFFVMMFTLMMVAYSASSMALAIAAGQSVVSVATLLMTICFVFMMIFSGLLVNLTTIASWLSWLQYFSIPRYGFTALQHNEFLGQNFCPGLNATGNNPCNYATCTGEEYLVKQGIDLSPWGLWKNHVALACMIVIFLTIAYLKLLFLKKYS

OATP1B1 = target: T2, OATP1B1 (Homo sapiens, UniProt Q9Y6L6); conditions: cited from earlier work
T2 sequence (Q9Y6L6 1-691): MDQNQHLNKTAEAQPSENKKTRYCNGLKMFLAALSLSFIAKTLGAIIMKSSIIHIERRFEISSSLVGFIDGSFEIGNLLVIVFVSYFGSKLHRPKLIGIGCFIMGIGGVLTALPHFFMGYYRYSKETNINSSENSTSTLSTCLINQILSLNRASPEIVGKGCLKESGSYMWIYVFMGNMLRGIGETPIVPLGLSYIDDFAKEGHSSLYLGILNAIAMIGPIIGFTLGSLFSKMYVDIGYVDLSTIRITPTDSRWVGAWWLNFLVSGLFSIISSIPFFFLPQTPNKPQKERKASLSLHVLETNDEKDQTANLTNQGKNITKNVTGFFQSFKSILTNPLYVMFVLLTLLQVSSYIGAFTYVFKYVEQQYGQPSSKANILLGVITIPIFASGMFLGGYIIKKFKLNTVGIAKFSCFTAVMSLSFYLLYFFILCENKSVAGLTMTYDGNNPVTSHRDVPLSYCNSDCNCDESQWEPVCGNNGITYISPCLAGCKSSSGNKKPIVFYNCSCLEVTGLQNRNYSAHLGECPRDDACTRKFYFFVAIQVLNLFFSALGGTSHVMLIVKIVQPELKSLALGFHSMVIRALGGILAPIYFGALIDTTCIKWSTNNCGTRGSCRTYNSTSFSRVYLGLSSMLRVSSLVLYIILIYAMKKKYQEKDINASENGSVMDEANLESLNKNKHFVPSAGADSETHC

OATP1B3 = target: T3, OATP1B3 (Homo sapiens, UniProt Q9NPD5); conditions: cited from earlier work
T3 sequence (Q9NPD5 1-702): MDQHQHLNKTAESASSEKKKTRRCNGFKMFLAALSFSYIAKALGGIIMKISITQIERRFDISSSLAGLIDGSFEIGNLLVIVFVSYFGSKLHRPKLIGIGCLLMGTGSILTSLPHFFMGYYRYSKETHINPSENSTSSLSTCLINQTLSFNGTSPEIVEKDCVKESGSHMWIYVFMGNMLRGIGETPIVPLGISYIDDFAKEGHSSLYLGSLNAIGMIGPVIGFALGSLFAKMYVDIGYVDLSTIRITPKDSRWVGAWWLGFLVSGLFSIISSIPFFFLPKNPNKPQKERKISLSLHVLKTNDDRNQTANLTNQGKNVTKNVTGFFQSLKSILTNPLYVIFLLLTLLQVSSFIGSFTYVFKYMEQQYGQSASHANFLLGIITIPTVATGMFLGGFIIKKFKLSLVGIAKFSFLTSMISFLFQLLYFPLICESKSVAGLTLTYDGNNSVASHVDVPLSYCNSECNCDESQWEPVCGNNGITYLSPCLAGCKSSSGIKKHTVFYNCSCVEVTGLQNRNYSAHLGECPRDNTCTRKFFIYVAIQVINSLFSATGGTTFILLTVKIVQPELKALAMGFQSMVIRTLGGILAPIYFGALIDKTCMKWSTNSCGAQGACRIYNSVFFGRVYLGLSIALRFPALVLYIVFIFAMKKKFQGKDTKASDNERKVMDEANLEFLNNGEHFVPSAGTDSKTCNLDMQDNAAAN

CYP = CYP inhibition potential; conditions: any CYP

SMILES: COC(=O)N[C@H](C(=O)N1[C@H](c2nc3cc(-c4cc5ccc4CCc4ccc(c(-c6ccc7[nH]c([C@@H]8C[C@@H]9CCCC[C@@H]9N8C(=O)[C@@H](NC(=O)OC)C(C)C)nc7c6)c4)CC5)ccc3[nH]2)C[C@@H]2CCCC[C@@H]21)C(C)C [Odalasvir, methyl [(2,)-1-[(2S,3aS,7aS)-2-[6-[11-[2-[(2S,3aS,7aS)-1-[(2S)-2-[(methoxycarbonyl)amino]-3-methylbutanoyl]octahydro-1H-indol-2-yl]-1H-benzimidazol-6-yl]tricyclo[8.2.2.2^4,7]hexadeca-1(12),4,6,10,13,15-hexaen-5-yl]-1H-benzimidazol-2-yl]octahydro-1H-indol-1-yl]-3-methyl-1-oxobutan-2-yl]carbamate]
- observed exposures in Cohort 1 / group (i) ([1]; Compound (III) 400 mg, ODV 50 mg QD, SMV 100 mg QD): higher than anticipated
- decrease of ODV exposure on reducing ODV dosing from QD to QOD ([1]; in vivo): proportionally
- activity against genotype 3 in vitro (HCV genotype 3): effective
- in vitro inhibition of P-gp (P-gp): moderate inhibition
- in vitro inhibition of MRP2 (MRP2): no inhibition
- in vitro inhibition of MRP3 (MRP3): no inhibition
- in vitro inhibition of BCRP (BCRP): no inhibition
- in vitro inhibition of OATP1B1 (OATP1B1): no inhibition
- in vitro inhibition of OATP1B3 (OATP1B3): no inhibition
- CYP inhibition potential (CYP): does not inhibit
